Reference: ChEMBL document CHEMBL1127216, “Diastereoselective synthesis of cyclopropyl phenylalanines and their incorporation into dipeptides” (Bioorg Med Chem Lett, 1993)

Columns and labels:
[1] = molecular target: T1, Cholecystokinin receptor type A (Rattus norvegicus, UniProt P30551); assay: Compound was tested for the inhibition of specific binding of [125I]bolton Hunter CCK-8 to Cholecystokinin type A receptor in the rat pancreas
T1 sequence (P30551 whole entry): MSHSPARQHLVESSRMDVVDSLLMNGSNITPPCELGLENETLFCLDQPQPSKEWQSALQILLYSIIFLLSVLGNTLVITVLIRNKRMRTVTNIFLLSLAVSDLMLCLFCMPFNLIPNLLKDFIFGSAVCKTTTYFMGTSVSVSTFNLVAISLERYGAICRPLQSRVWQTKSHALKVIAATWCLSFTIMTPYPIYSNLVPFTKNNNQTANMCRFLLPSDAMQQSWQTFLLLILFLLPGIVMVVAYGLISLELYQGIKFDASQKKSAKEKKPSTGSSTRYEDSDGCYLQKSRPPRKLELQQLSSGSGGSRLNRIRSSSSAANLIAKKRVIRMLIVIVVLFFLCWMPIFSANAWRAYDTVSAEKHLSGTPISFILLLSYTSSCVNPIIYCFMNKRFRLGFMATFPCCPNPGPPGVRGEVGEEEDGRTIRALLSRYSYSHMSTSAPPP

[2] = molecular target: T2, Gastrin/cholecystokinin type B receptor (Mus musculus, UniProt P56481); assay: Compound was tested for the inhibition of specific binding of [125I]bolton Hunter CCK-8 to Cholecystokinin type B receptor in mouse cerebral cortex; assay type: tissue-based
T2 sequence (P56481 whole entry): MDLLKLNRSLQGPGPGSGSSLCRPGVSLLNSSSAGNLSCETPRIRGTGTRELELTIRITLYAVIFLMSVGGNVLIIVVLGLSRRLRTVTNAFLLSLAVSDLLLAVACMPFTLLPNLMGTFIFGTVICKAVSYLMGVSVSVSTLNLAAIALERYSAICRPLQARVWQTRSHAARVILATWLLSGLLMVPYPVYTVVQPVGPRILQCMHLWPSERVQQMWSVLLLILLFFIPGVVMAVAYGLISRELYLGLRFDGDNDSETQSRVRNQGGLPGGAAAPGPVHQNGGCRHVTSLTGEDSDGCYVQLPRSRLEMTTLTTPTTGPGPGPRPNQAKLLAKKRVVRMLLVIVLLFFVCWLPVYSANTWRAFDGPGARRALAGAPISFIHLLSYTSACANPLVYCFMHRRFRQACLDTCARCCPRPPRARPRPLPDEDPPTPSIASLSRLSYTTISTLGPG

Row | IC50 [1] [µM] | IC50 [2] [µM] | SMILES
1 | 0.06 | 0.054 | C[C@](Cc1c[nH]c2ccccc12)(NC(=O)OC1C2CC3CC(C2)CC1C3)C(=O)N/C(=C\c1ccccc1)C(=O)O (some centres undefined)
2 | – | 0.27 | COC(=O)/C(=C/c1ccccc1)NC(=O)[C@@](C)(Cc1c[nH]c2ccccc12)NC(=O)OC1C2CC3CC(C2)CC1C3 (some centres undefined)
3 | 0.72 | 0.6 | COC(=O)[C@]1(NC(=O)[C@@](C)(Cc2c[nH]c3ccccc23)NC(=O)OC2C3CC4CC(C3)CC2C4)C[C@H]1c1ccccc1 (some centres undefined)
4 | 0.026 | 0.0039 | COC(=O)[C@@]1(NC(=O)[C@@](C)(Cc2c[nH]c3ccccc23)NC(=O)OC2C3CC4CC(C3)CC2C4)C[C@H]1c1ccccc1 (some centres undefined)
5 | 0.084 | 0.14 | C[C@](Cc1c[nH]c2ccccc12)(NC(=O)OC1C2CC3CC(C2)CC1C3)C(=O)N[C@@]1(C(=O)O)C[C@H]1c1ccccc1 (some centres undefined)
